This data set in a line: Henry solubility constant Hcp at 298.15 K (mol/(m3 Pa)). The conditions noted are these: reference: Zhang et al. (2013).

Values joined by “and” are separate entries in the source; they are usually repeats but may differ in a detail not shown here. Equal entries are not always repeated.

For the compound `Cc1ccccc1C` [1,2-dimethylbenzene], the “Henry solubility constant Hcp” value is 0.0027 and 0.0022.

As for `CCc1ccccc1` [ethylbenzene], the “Henry solubility constant Hcp” value was 0.0019 and 0.0014.

Consider `O=[N+]([O-])c1ccccc1` [nitrobenzene], for which the “Henry solubility constant Hcp” value amounted to 0.14.

As for `ClC=C(Cl)Cl` [trichloroethene], the “Henry solubility constant Hcp” value is 0.0016 and 0.0013.

As for `Cc1ccccc1` [methylbenzene], the “Henry solubility constant Hcp” value is 0.0028.

As to `c1ccccc1` [benzene], the “Henry solubility constant Hcp” value was 0.0027 and 0.0035.

The values are drawn from Sander's compilation of Henry's law constants (doi:10.14233/ajchem.2013.13584).
